Activity calls are given as the source filed them. The calls are words filed in the database; no cut-off is given here. Where a SMILES comes first, the peptide text is derived from it.
Tests used:
[1] = molecular target: Frizzled-2 (Rattus norvegicus) (UniProt Q08464); experiment: Agonist activity at rat frizzled-2 expressed in human HEK293superTOP flash cells by luciferase reporter gene assay; assay type: cell-based; details: HEK293
[2] = molecular target: Frizzled-2 (Homo sapiens) (UniProt Q14332); experiment: Antagonist activity at frizzled-2 (unknown origin) expressed in rat C-FIT cells assessed as inhibition of Wnt3a-stimulated blockade of migration at 10 nM incubated for 48 hrs and measured for 24 hrs following the scratch by scratch wound healing assay; assay type: functional, cell-based; details: filed as antagonist, time 72.0 hrs
[3] = molecular target: Frizzled-2 (Rattus norvegicus) (UniProt Q08464); experiment: Agonist activity at rat frizzled-2 expressed in African green monkey COS7 cells by luciferase reporter gene assay; assay type: cell-based
Mus musculus [4] = experiment: Cardioprotective activity against myocardial infarction Swiss mouse model assessed as increase in myofibroblast number at 6 ug/kg/day, sc via osmotic pumps for 5 weeks by immunohistochemical staining analysis; assay type: functional, organism-based; details: dose 6.0 µg/kg/day
[5] = molecular target: Frizzled-2 (Homo sapiens) (UniProt Q14332); experiment: Antagonist activity at frizzled-2 (unknown origin) expressed in rat C-FIT cells assessed as inhibition of Wnt5a-stimulated cell differentiation changes by measuring alpha-smooth muscle actin gene expression at 10 nM by quantitative RT-PCR analysis; assay type: functional, cell-based; details: filed as antagonist
Mus musculus [6] = experiment: Cardioprotective activity against myocardial infarction Swiss mouse model assessed as increase in infarct area thickness in heart at 6 ug/kg/day, sc via osmotic pumps for 2 to 5 weeks by immunohistochemical staining analysis; assay type: functional, organism-based; details: dose 6.0 µg/kg/day, time 2-5 weeks
[7] = molecular target: Frizzled-1 (Rattus norvegicus) (UniProt Q08463); experiment: Antagonist activity at Wnt3a-stimulated rat frizzled-1 expressed in human HEK293superTOP flash cells at 10 nM incubated for 24 hrs by luciferase reporter gene assay relative to control; assay type: cell-based; details: HEK293, filed as antagonist
[8] = molecular target: Frizzled-1 (Homo sapiens) (UniProt Q9UP38); experiment: Antagonist activity at Wnt3a-stimulaed frizzled-1 (unknown origin) expressed in human HEK293superTOP flash cells at 1 nM incubated for 24 hrs by luciferase reporter gene assay (reference value: 0%); assay type: functional, cell-based; details: HEK293, filed as antagonist
Mus musculus [9] = experiment: Cardioprotective activity against myocardial infarction Swiss mouse model assessed as increase in amount of blood vessels in heart at 6 ug/kg/day, sc via osmotic pumps for 5 weeks by immunohistochemical staining analysis; assay type: functional, organism-based; details: dose 6.0 µg/kg/day
[10] = molecular target: Frizzled-5 (Homo sapiens) (UniProt Q13467); experiment: Antagonist activity at Wnt3a-stimulaed frizzled-5 (unknown origin) expressed in human HEK293superTOP flash cells incubated for 24 hrs by luciferase reporter gene assay; assay type: functional, cell-based; details: HEK293
[11] = molecular target: Frizzled-2 (Mus musculus) (UniProt Q9JIP6); experiment: Antagonist activity at Wnt3a-stimulaed mouse frizzled-2 expressed in human HEK293superTOP flash cells incubated for 24 hrs by luciferase reporter gene assay; assay type: cell-based; details: HEK293, filed as antagonist
[12] = molecular target: Frizzled-1 (Rattus norvegicus) (UniProt Q08463); experiment: Antagonist activity at rat frizzled-1 expressed in rat C-FIT cells assessed as inhibition of Wnt5a-stimulated blockade of migration at 10 nM incubated for 48 hrs and measured for 24 hrs following the scratch by scratch wound healing assay; assay type: cell-based; details: filed as antagonist, time 72.0 hrs

Chain of Frizzled-1 (Rattus norvegicus) (Q08463 whole entry): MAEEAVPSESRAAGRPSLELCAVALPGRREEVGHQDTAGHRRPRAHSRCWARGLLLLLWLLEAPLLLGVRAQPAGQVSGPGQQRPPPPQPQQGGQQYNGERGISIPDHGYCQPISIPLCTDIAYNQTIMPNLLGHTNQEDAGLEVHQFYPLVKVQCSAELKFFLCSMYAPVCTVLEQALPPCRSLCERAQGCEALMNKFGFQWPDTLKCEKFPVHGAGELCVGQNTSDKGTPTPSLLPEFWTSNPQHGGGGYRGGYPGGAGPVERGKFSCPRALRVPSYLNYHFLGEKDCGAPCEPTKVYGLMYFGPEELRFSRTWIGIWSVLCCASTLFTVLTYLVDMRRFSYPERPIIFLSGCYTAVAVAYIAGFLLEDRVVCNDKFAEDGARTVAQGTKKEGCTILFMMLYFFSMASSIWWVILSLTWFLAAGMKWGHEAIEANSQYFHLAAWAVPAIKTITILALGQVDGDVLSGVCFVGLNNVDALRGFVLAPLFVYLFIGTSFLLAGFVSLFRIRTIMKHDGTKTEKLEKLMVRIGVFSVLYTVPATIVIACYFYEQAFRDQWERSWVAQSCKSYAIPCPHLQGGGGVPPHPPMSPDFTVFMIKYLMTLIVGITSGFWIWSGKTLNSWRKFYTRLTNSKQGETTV
Chain of Frizzled-2 (Homo sapiens) (Q14332 24-565 limits assumed): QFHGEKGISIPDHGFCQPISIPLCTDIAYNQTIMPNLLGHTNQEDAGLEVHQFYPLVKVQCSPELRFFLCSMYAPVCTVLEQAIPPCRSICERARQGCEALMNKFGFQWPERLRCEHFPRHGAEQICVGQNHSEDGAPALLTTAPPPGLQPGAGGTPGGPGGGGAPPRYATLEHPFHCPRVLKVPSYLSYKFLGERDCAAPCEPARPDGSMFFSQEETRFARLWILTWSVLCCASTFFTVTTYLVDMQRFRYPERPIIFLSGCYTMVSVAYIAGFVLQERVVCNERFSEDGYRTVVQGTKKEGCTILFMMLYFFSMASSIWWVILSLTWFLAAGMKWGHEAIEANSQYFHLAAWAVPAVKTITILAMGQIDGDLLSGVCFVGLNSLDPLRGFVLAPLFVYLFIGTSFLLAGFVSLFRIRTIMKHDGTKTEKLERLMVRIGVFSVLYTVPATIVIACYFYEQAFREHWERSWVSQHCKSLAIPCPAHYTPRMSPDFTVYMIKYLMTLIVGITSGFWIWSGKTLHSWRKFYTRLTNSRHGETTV
Chain of Frizzled-2 (Rattus norvegicus) (Q08464 29-570 limits assumed): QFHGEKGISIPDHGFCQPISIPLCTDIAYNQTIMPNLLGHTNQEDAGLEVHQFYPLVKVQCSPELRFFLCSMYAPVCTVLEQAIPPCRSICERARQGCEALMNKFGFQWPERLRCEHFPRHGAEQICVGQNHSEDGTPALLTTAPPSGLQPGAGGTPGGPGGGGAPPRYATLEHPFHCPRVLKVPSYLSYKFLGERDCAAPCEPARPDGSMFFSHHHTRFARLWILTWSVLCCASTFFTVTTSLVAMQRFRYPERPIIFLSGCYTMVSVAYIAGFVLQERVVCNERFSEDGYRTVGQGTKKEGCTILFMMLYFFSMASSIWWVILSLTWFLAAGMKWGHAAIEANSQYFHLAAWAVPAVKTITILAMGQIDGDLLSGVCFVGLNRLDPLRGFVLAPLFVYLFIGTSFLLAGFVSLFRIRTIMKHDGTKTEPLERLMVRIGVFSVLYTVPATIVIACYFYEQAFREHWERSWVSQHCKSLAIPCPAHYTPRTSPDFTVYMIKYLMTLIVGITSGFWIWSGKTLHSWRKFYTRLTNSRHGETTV
Chain of Frizzled-5 (Homo sapiens) (Q13467 whole entry): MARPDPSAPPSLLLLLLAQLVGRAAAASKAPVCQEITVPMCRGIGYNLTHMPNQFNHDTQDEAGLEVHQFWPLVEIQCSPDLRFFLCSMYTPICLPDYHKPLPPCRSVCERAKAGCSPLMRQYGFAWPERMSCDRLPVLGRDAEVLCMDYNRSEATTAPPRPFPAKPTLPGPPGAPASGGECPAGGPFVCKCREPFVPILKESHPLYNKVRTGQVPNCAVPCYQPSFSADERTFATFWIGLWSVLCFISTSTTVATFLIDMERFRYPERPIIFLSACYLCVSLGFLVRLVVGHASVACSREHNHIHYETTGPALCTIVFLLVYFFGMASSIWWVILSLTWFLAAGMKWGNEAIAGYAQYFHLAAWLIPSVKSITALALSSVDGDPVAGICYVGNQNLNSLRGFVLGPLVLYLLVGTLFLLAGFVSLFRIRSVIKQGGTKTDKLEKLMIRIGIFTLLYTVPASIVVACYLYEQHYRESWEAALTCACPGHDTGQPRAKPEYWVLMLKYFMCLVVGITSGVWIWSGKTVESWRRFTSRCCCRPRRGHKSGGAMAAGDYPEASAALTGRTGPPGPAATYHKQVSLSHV
Chain of Frizzled-2 (Mus musculus) (Q9JIP6 whole entry, looked up): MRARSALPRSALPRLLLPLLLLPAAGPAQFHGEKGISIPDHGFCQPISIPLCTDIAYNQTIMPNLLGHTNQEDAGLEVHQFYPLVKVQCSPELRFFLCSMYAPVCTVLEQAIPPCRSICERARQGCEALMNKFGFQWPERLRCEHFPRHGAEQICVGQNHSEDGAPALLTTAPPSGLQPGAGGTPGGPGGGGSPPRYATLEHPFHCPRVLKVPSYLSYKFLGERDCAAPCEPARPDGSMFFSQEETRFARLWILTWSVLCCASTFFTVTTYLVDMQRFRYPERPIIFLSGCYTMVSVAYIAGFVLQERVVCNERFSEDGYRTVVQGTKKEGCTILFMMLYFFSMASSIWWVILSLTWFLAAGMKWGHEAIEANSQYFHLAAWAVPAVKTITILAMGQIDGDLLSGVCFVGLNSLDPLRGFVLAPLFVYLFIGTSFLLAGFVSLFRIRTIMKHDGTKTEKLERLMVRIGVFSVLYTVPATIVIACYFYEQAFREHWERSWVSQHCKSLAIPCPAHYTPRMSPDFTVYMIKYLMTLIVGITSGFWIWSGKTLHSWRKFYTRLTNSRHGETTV
Chain of Frizzled-1 (Homo sapiens) (Q9UP38 70-647 limits assumed): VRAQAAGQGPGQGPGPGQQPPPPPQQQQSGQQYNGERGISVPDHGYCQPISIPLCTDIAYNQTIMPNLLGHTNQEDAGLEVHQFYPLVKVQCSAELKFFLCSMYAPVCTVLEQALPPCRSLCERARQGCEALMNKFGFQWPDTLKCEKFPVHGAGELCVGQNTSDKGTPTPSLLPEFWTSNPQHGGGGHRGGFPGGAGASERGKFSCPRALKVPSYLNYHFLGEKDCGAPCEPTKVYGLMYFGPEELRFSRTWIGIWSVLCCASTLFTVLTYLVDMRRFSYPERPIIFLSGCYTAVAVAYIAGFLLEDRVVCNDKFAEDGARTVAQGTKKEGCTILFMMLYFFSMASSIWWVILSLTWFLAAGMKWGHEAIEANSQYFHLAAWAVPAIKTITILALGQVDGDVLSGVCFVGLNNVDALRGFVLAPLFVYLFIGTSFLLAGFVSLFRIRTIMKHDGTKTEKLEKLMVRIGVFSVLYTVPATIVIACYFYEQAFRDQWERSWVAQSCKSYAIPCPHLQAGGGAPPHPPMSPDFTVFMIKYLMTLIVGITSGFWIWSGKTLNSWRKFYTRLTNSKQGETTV

In the case of `CSCC[C@H](NC(=O)CNC(=O)[C@H](CCC(=O)O)NC(=O)[C@H](CO)NC(=O)[C@@H](NC(=O)[C@H](CCCCN)NC(=O)[C@H](CC(N)=O)NC(=O)[C@H](CS)NC(C)=O)[C@@H](C)O)C(=O)N[C@@H](CC(=O)O)C(=O)NCC(=O)N[C@@H](CS)C(=O)N[C@@H](CCC(=O)O)C(=O)N[C@@H](CC(C)C)C(N)=O` (Ac-CNKTSEGMDGCEL-NH2), the Activity [1] is reported as “inactive”, the inhibition [2] is reported as 100% and the Activity [3] is reported as “inactive”. For the same compound, the Activity (Mus musculus [4]) was “Active”, the inhibition [5] was 100% and the Activity (Mus musculus [6]) was “Active”. The inhibition [7] was 100%, the inhibition [8] was 18% and the Activity (Mus musculus [9]) was “Active”. For the same compound, the inhibition [10] was “inactive”, the inhibition [11] was “Active” and the inhibition [12] was 100%.

— ChEMBL document CHEMBL4806963, “Antagonistic peptides for frizzled-1 and frizzled-2” (2013)
